According to US8236143B2, “Controlling chemical reactions by spectral chemistry and spectral conditioning” (GR Intellectual Reserve, LLC, priority 2002, dated 2012):

Key:
[1] = Phenyl salicylate solubility in neon-lamp conditioned vs unconditioned acetone at room temperature; type: physicochemical; settings: about 20 hours equilibration
Protocol: Acetone (about 1 ml) was pipetted into small glass test tubes and stoppers placed in the tube. Tubes were placed under a neon lam; (about 8m/cm^2) in an otherwise dark room for about 1-5 hours at about 28° C. ambient temperature. Tubes were also placed simultaneously in an incubator at 28° C. for about 1.5 hours.
Phenyl solicylate (about 3.50 grams) was added to each tube leaving a layer undissolved on the bottom of each tube. The solutions were allowed to equilibrate (about 20 hours). Solution was filtered over the crystals and 0.500 ml pipetted into fresh tubes.
After the acetone evaporated, dry weights of phenyl solicylate per ml dissolved in conditioned and unconditioned acetone were determined.

[2] = Sucrose solubility in sodium-lamp conditioned vs control water at room temperature (22° C.); type: physicochemical
Protocol: Beaker “II” was placed under another sodium lamp 12 as like Beaker “KK”; and Beaker “JJ” was placed in the same incubator as Beaker “LL”. […] Specifically, Beaker “GG” was placed under another sodium lamp 12 as like Beaker “KK” and Beaker “II”; and Becker “HH” was placed into the same incubator as Beaker “LL” and “II”.

Average amount of phenyl salicylate dissolved ([1]; acetone conditioned under neon lamp)	Average amount of phenyl salicylate dissolved ([1]; unconditioned acetone (incubator 28° C.))	Weight (dry sucrose weight per 100 ml solution) ([2]; Beaker GG, water under sodium lamp one hour, solution at 23.5° C.)	Weight (dry sucrose weight per 100 ml solution) ([2]; Beaker HH, control water 1 hour in incubator, solution at 23° C.)	Weight (dry sucrose weight per 100 ml solution) ([2]; Beaker II, water under sodium lamp two hours, solution at 23.5° C.)	Weight (dry sucrose weight per 100 ml solution) ([2]; Beaker JJ, control water 2 hours in incubator, solution at 23.5° C.)	Weight (dry sucrose weight per 100 ml solution) ([2]; Beaker KK, water under Na lamp three hours, solution at 23.5° C.)	Weight (dry sucrose weight per 100 ml solution) ([2]; Beaker LL, control water 3 hours in incubator, solution at 23.5° C.)	more sucrose dissolved by conditioned water than by untreated control water ([2]; two hours exposure of water to the sodium lamp)	SMILES
0.78 g/mL	0.68 g/mL								O=C(Oc1ccccc1)c1ccccc1O [phenyl salicylate]
		49 g/100 ml	49 g/100 ml	47 g/100 ml	44 g/100 ml	46 g/100 ml	49 g/100 ml	about 7%	OC[C@H]1O[C@@](CO)(O[C@H]2O[C@H](CO)[C@@H](O)[C@H](O)[C@H]2O)[C@@H](O)[C@@H]1O [Sucrose]
